According to PubChem BioAssay (NCI):
Values joined by “and” are separate entries in the source; they are usually repeats but may differ in a detail not shown here. Identical values can stand only once.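 Values below derive from 48-hour exposures of cells grown in 96-well plates, with endpoints linearly interpolated between the two concentrations bracketing the appropriate inhibition level. At the GI50, growth is halved. TGI is the concentration that stops growth completely.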

Tests used:
Assay in all cases: NCI-60 cell line screen, 48 h
HS 578T breast = tested on: HS 578T breast
BT-549 breast = tested on: BT-549 breast
NCI/ADR-RES ovarian = tested on: NCI/ADR-RES ovarian
XF 498 CNS = tested on: XF 498 CNS
SNB-78 CNS = tested on: SNB-78 CNS
LXFL 529 NSCLC = tested on: LXFL 529 NSCLC
HOP-18 NSCLC = tested on: HOP-18 NSCLC
MDA-N = tested on: MDA-N

SMILES | GI50 (HS 578T breast) | TGI (HS 578T breast) | GI50 (BT-549 breast) | GI50 (NCI/ADR-RES ovarian) | TGI (NCI/ADR-RES ovarian) | TGI (XF 498 CNS) | TGI (SNB-78 CNS) | TGI (LXFL 529 NSCLC) | TGI (HOP-18 NSCLC) | TGI (BT-549 breast) | TGI (MDA-N)
COc1cc([C@@H]2c3cc4c(cc3[C@H](SC(=N)N)[C@H]3COC(=O)[C@H]23)OCO4)cc(OC)c1OC | 0.264 µM | > 100 µM | 2.3 µM | 0.253 µM | > 100 µM | – | – | – | – | – | –
O=[N+]([O-])c1cccnc1S(=O)(=O)c1ccccc1 | – | – | – | – | – | 25.8 µM | 44 µM | 5.87 µM | 25.7 µM | – | –
Nc1nc(Cl)c2ncn(Cc3ccc(C45CC6CC(CC(C6)C4)C5)c(OCc4cc(F)c(F)cc4F)c3)c2n1 | 12.1 µM | 71.3 µM | 3.86 µM | 3.5 µM | 13.8 µM | – | – | – | – | 13 µM | –
CN(C)CCCOc1ccc(NC2=C(Cl)C(=O)C(Nc3ccc(OCCCN(C)C)cc3)=C(Cl)C2=O)cc1 | 1.59 µM | 4.2 µM | 1.71 µM | 1.68 µM | 4.72 µM | – | – | – | – | 3.08 µM | –
CCc1c(OC(C)=O)c2c(NC3OC(COC(C)=O)C(OC(C)=O)C(OC(C)=O)C3OC(C)=O)nc(SC)nc2oc1=O (stereo unspecified) | – | – | – | – | – | > 100 µM | > 100 µM | > 100 µM | > 100 µM | – | –
COc1ccccc1/C=C(\NC(=O)c1ccccc1)c1nc2ccc(Cl)cc2[nH]1 | – | – | – | – | – | 89.5 µM | > 100 µM | 62.9 µM | 82.6 µM | – | –
O=C1C2C(C(=O)N1Cc1ccccc1)N(Cc1ccccc1)C(=O)N2Cc1ccccc1 (stereo unspecified) | – | – | – | – | – | > 100 µM | > 100 µM | > 100 µM | – | – | –
CCCCCCCCCCCCCCCC(=O)OCC1OC(n2cc(F)c(=O)[nH]c2=O)C(NC(=O)OCc2ccccc2)C(O)C1O (stereo unspecified) | – | – | – | – | – | 31.1 µM | 52.1 µM | 31.5 µM | 37.8 µM | – | –
CC(=O)Nc1cccc(C#Cc2cncnc2Nc2ccc(OCc3cccc(F)c3)c(Cl)c2)c1 | 10.2 µM | > 25 µM | 11.9 µM | 6.86 µM | > 25 µM | – | – | – | – | > 25 µM | –
C[n+]1cn(CC(=O)c2ccccc2)c(C(N)=O)c1N | – | – | – | – | – | – | > 100 µM | > 100 µM | > 100 µM | – | –
C/C(=C/CCC(C)[C@@H]1CC[C@]2(C)C3=C(CC[C@@]12C)[C@@]1(C)CCC(=O)C(C)(C)[C@@H]1CC3)C(=O)O (stereo partly specified) | 1.45 µM | 3.4 µM | 1.17 µM | 1.54 µM | 3.26 µM | – | – | – | – | 2.45 µM | –
C=C1C(=O)O[C@@H]2C[C@@]3(C)[C@H](O)CCC(=C)[C@@H]3C[C@H]12 | – | – | – | – | – | 9.74 µM | 27.8 µM | 12.8 µM | – | – | –
COc1ccc(/C=C/C(=O)c2c(-c3ccccc3)nn(C)c(=O)c2N2CCCCC2)cc1 | – | – | – | – | – | – | – | 98.8 µM | 73.9 µM | – | –
C#COc1cccc(Nc2ncnc3cc(NC(=O)[C@@H](C)Cl)ccc23)c1 | 7.88 µM | > 62.5 µM | 6.89 µM | 5.21 µM | 34.6 µM | – | – | – | – | > 62.5 µM | –
Cc1ccc(-n2nc(C(OC3OC(CO)C(O)C(O)C3O)C(O)CO)c3nc4cc(C)c(C)cc4nc32)cc1 (stereo unspecified) | – | – | – | – | – | > 100 µM | > 100 µM | > 100 µM | – | – | –
O=C(O)c1ccccc1C(=O)c1ccco1 | – | – | – | – | – | > 100 µM | > 100 µM | – | > 100 µM | – | –

SMILES | GI50 (HS 578T breast) | TGI (HS 578T breast) | GI50 (BT-549 breast) | GI50 (NCI/ADR-RES ovarian) | TGI (NCI/ADR-RES ovarian) | TGI (XF 498 CNS) | TGI (SNB-78 CNS) | TGI (LXFL 529 NSCLC) | TGI (HOP-18 NSCLC) | TGI (BT-549 breast) | TGI (MDA-N)
CCc1ccc(Oc2c(-c3ccc(OCc4ccc(Cl)cc4)cc3O)nn(C)c2C(F)(F)F)cc1 | 1.5 µM | 4.92 µM | 1.56 µM | 0.905 µM | 4.47 µM | – | – | – | – | 3.34 µM | –
COc1ccc(-c2cnc(-c3ccncc3-c3cccc(OC)c3)o2)cc1 | 0.0354 µM | 20.2 µM | 0.154 µM | 0.0265 µM | 30.1 µM | – | – | – | – | 13.9 µM | –
OCCNc1nc2ccccc2c2[nH]c3ccccc3c12 | 0.71 µM | 4.57 µM | 1.73 µM | 0.738 µM | 5.18 µM | – | – | – | – | 6.68 µM | –
Oc1cn(-c2ccc(Cl)cc2)nc1-c1n[nH]c(=S)n1-c1ccc(F)cc1 | 29.1 µM | > 100 µM | 16.5 µM | 15.4 µM | 54.9 µM | – | – | – | – | 56.9 µM | –
Nc1c(C(=O)Nc2ccccc2)sc2nc3c(cc12)C(=O)CCC3 | 0.524 µM | > 72.4 µM | 3.17 µM | 0.399 µM | 10.6 µM | – | – | – | – | > 100 µM | –
Cc1ccc(C(=O)Nc2ccc(Oc3cc4cnn(C)c4cc3-c3cn[nH]c3)c(F)c2)c(=O)n1-c1ccc(F)cc1 | 7.35 µM | > 100 µM | 7.05 µM | > 94.1 µM | > 100 µM | – | – | – | – | > 100 µM | –
CN(C)CCNC(=O)Nc1ccc(N(C)c2ccnc(Nc3ccc(CS(C)(=O)=O)cc3)n2)cc1 | > 19.8 µM | > 25 µM | > 25 µM | > 25 µM | > 25 µM | – | – | – | – | > 25 µM | –
CCOC(=O)CNC(=O)c1[nH]cnc1/N=N/N(C)C | – | – | – | – | – | – | – | > 100 µM | – | – | –
CCN1C(=O)N(CC)C2C1NC(=S)N2/N=C/C=C/c1ccccc1 (stereo unspecified) | 0.0824 µM | > 100 µM | 0.225 µM | 0.0935 µM | > 100 µM | – | – | – | – | 13 µM | –
Cc1ccc(S(=O)(=O)Nc2ccccc2C(C)(C)C)cc1 | – | – | – | – | – | 44.8 µM | > 100 µM | 78.1 µM | – | – | –
NC(=O)c1nc(-c2c(F)cccc2Cl)oc1Nc1ccc(C(=O)N2CCOCC2)cc1 | – | – | 3.62 µM | 6.23 µM | > 100 µM | – | – | – | – | 54.6 µM | –
CCOC(=O)c1cn(C)c2c(OC)c3ccccc3c(OC)c2c1=O | 23.6 µM | 63.8 µM | 43 µM | 20.4 µM | 56.5 µM | – | – | – | – | > 100 µM | –
CC[n+]1c(-c2ccccc2)c2cc(N)ccc2c2ccc(N)cc21 | – | 5.86 µM | 0.831 µM | – | > 100 µM | – | – | 2.94 µM | 18.3 µM | 3.01 µM and 3.87 µM | 19 µM
CCOC(=O)C1=C(C)N(NC(N)=O)C2(N)N(NC(N)=O)C(C)=C(C(=O)OCC)C12C#N (stereo unspecified) | – | – | – | – | – | > 100 µM | – | > 100 µM | – | – | –
Cc1nc2sccn2c1C(=O)NNC(N)=S | – | – | – | – | – | – | – | > 100 µM | > 100 µM | – | –
